The source of these data is patent publication US10844038B2, “1,2-dithiolane compounds useful in neuroprotection, autoimmune and cancer diseases and conditions” (SABILA BIOSCIENCES LLC, priority 2016, dated 2020).

In one test the target is AurA (Homo sapiens (Human), UniProt O14965). As to the kind of experiment: Radioisotope filter binding assay. In kind it is biochemical. As to conditions: read-out: IC50 Activity Levels Against RTKs (c-Kit, RET, HER4) and AurA, CHK2 Kinases: AurA. In outline:
(§1)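 Compound + kinase + substrate/cofactors, 20 min RT preincubation; 33P-ATP added to start, 2 h RT. Buffer: 20 mM Hepes pH 7.5, 10 mM MgCl2, 1 mM EGTA, 0.02% Brij35, 2 mM DTT, 0.1 mM Na3VO4, 1% DMSO. Spotted on P81 paper, washed, counted.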

The next test addresses ERK2 (Homo sapiens (Human), UniProt P28482). In words: KINOMEscan competition binding assay (Kd). The note with it: read-out: Kd Values Against MAPK Pathway Kinases: ERK2.
For the next test, the target named is MEK2 (Homo sapiens (Human), UniProt P36507). As to the kind of experiment: KINOMEscan competition binding assay (Kd). The note with it: read-out: Kd Values Against MEK Kinases Isoforms: MEK2.
Sequence of MEK2 (P36507 whole entry, canonical isoform): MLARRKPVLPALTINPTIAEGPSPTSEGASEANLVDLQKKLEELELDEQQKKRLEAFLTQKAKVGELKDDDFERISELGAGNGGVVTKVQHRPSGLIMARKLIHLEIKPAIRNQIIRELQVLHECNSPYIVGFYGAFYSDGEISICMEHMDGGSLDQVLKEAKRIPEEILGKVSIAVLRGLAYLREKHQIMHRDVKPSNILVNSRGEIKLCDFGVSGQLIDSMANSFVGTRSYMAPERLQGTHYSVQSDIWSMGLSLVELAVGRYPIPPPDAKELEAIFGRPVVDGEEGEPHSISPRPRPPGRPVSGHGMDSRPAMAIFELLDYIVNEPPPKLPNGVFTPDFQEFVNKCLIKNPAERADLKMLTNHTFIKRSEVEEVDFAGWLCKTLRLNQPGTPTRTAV
A further test deals with ERK1 (Homo sapiens (Human), UniProt P27361). In words: KINOMEscan competition binding assay (Kd). The note with it: read-out: Kd Values Against MAPK Pathway Kinases: ERK1.
Sequence of ERK1 (P27361 whole entry, canonical isoform): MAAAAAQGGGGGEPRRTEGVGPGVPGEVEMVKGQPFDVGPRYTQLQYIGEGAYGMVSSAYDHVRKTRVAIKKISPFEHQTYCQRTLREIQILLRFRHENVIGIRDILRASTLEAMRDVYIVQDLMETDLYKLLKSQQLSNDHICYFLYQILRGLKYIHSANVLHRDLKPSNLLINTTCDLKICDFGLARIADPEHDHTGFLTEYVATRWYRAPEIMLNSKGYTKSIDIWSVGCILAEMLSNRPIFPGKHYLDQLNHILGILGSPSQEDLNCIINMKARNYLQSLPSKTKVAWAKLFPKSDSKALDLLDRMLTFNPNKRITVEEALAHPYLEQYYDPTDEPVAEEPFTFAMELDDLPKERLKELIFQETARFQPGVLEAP
Another test has as its target MEK3 (Homo sapiens (Human), UniProt P46734). As to the kind of experiment: KINOMEscan competition binding assay (Kd). The note with it: read-out: Kd Values Against MEK Kinases Isoforms: MEK3.
The target of a further test is MEK4 (Homo sapiens (Human), UniProt P45985). As to the kind of experiment: KINOMEscan competition binding assay (Kd). As to conditions: read-out: Kd Values Against MEK Kinases Isoforms: MEK4.
Sequence of MEK4 (P45985 whole entry, canonical isoform): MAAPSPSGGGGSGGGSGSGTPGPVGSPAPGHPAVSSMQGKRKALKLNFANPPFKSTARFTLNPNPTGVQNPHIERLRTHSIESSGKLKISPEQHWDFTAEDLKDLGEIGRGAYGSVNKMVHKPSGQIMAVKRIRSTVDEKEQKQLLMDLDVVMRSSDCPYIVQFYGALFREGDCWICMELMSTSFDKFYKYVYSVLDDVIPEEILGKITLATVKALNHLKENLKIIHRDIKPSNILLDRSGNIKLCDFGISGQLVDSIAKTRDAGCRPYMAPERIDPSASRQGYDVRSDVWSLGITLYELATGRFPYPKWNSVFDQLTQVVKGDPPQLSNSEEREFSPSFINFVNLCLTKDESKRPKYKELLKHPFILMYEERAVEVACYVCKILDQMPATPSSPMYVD
A further test addresses BRAF (V600E) (Homo sapiens (Human), UniProt P15056, V600E). As to the kind of experiment: KINOMEscan competition binding assay (Kd). The note with it: read-out: Kd Values Against MAPK Pathway Kinases: BRAF (V600E).
The target of another test is FRK (Homo sapiens (Human), UniProt P42685). As to the kind of experiment: Radioisotope filter binding assay. In kind it is biochemical. The note with it: read-out: IC50 Activity Levels Against FRK Family Kinases: FRK. Put shortly:
as §1

The next test concerns the target ITK (Homo sapiens (Human), UniProt Q08881). As to the kind of experiment: Radioisotope filter binding assay. In kind it is biochemical. The note with it: read-out: IC50 Activity Levels Against Representative TEC Family Kinases: ITK. Put shortly: as §1
The next test has as its target CSK (Homo sapiens (Human), UniProt P41240). As to the kind of experiment: Radioisotope filter binding assay. The test is classed as biochemical. The note with it: read-out: IC50 Activity Levels Against SRC Family Kinases: CSK. In outline:
as §1

The structures appear in SMILES notation.

In general, IC50 refers to the point on the concentration scale where inhibition reaches its midpoint. As usually defined, the Kd is the concentration at which binding is half-saturated.

Sequence of ERK2 (P28482 whole entry, canonical isoform): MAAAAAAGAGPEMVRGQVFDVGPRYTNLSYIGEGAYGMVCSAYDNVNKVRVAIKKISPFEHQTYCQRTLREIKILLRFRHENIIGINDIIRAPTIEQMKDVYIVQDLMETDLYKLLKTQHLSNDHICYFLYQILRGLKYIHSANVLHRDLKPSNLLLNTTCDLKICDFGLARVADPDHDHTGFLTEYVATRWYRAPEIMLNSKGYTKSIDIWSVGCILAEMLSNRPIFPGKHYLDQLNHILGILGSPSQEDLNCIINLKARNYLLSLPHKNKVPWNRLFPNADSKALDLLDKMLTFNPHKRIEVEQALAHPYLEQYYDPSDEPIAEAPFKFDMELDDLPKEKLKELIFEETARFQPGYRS
Sequence of CSK (P41240 whole entry): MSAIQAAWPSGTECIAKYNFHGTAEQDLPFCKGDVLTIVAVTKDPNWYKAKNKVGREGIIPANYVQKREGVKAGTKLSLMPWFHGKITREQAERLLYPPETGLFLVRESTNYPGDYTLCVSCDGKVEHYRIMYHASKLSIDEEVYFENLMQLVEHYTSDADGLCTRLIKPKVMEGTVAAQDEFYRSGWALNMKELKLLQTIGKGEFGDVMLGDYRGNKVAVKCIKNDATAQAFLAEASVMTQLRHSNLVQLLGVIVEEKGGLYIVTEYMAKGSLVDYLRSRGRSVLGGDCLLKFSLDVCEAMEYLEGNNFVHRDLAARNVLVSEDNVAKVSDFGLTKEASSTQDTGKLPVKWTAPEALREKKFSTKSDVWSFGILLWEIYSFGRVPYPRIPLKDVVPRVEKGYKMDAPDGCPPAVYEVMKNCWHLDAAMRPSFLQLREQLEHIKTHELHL
Sequence of AurA (O14965 whole entry): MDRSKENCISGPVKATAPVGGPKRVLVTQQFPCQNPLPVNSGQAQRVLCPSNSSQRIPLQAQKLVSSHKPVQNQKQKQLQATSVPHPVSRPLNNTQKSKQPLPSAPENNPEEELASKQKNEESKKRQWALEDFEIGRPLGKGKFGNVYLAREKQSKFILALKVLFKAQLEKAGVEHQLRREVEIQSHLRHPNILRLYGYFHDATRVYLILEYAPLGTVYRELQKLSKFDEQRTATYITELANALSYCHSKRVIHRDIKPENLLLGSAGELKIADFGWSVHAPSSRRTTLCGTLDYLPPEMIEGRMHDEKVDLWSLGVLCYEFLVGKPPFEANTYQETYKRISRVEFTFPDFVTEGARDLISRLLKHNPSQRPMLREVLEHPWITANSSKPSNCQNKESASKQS
Sequence of MEK3 (P46734 whole entry, canonical isoform): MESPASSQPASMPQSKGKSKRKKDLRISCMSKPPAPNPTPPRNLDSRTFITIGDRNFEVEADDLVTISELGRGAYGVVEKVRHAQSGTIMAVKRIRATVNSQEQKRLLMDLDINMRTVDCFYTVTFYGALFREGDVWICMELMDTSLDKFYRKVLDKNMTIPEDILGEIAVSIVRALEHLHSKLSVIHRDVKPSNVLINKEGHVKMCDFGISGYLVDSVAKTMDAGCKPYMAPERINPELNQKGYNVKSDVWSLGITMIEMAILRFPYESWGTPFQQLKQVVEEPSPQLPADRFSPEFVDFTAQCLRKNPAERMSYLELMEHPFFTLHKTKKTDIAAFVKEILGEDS
Sequence of ITK (Q08881 whole entry): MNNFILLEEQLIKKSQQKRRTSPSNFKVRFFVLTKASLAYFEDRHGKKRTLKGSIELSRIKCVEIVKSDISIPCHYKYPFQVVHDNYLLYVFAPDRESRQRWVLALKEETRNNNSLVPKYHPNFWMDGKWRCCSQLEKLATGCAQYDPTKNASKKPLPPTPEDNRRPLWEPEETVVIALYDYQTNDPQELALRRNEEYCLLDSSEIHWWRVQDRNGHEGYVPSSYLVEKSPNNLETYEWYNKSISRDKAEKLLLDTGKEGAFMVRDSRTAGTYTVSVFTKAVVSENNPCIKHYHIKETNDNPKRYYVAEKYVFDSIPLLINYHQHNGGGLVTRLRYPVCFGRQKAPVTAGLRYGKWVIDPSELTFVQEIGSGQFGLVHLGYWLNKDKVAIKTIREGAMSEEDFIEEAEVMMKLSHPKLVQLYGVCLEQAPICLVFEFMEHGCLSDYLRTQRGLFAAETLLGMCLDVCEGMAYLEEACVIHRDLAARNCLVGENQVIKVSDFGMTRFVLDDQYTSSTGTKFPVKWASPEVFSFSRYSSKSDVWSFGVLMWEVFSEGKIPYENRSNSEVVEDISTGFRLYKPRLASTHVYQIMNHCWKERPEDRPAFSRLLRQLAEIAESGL
Sequence of BRAF (V600E) (P15056 whole entry V600E): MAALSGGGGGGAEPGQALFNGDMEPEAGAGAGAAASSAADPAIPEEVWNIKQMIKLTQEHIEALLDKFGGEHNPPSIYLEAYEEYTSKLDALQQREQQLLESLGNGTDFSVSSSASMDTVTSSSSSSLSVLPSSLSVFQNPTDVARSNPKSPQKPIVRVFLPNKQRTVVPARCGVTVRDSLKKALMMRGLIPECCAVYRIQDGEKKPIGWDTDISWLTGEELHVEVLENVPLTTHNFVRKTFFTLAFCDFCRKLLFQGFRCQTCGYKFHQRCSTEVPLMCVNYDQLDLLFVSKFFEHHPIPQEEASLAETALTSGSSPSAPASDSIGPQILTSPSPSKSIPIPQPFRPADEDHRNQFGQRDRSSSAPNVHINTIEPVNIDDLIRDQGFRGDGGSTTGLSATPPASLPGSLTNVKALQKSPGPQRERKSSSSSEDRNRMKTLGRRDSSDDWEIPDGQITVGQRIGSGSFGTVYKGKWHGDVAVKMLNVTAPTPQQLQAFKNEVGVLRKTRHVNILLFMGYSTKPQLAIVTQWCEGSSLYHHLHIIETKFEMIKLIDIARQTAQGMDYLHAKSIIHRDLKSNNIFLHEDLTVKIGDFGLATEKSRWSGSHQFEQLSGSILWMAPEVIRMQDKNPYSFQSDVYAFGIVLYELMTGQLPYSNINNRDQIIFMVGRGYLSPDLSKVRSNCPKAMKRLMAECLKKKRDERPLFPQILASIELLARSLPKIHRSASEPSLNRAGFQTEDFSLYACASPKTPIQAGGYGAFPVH
Sequence of FRK (P42685 whole entry): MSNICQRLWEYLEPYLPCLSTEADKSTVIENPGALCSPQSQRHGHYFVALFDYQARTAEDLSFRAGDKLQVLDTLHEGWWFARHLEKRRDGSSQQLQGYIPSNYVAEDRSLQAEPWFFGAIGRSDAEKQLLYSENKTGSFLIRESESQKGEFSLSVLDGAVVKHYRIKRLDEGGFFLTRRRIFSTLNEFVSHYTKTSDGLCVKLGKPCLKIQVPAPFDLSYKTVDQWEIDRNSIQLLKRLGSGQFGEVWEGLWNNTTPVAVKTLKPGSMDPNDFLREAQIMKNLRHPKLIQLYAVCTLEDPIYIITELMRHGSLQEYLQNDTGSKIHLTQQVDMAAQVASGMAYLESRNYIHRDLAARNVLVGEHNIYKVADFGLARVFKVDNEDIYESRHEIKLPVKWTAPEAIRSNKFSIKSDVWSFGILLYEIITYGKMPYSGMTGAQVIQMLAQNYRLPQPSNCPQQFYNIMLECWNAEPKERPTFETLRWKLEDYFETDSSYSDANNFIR

Take `Nc1ncnc2c1c(-c1ccc(Oc3ccccc3)cc1)nn2C[C@H]1SSC[C@H]1O` [46 B.]: the IC50 at AurA was 0.1 to 0.999 µM. The equilibrium dissociation constant (Kd) on ERK2 lay in the range of 1 to 10 µM; at MEK2, 0.1 to 0.999 µM; on ERK1, 1 to 10 µM; on MEK3, 1 to 10 µM; at MEK4 it was 1 to 10 µM; at BRAF (V600E) it was 1 to 10 µM.

Regarding `Nc1ncnc2c1c(-c1ccc(Oc3ccccc3)cc1)nn2C[C@H]1SSC[C@@H]1O` [43 B.], the IC50 at FRK fell in the range of 0.005 to 0.099 µM; on ITK it was 1 to 10 µM; at CSK, 0.005 to 0.099 µM.
